Experimental findings from US20080167332A1, “Novel Compounds 243” (priority 2006, published 2008) are described below.

Structures are written as SMILES. Structures can show the parent of a compound that is named as a salt. Where two headings read alike, the source gives them in different places.

Test [1] has as its target T1, recombinant human CCR1 (Homo sapiens, UniProt P32246).
T1 construct: expressed in transfected cells; membranes
T1 sequence (P32246 1-355): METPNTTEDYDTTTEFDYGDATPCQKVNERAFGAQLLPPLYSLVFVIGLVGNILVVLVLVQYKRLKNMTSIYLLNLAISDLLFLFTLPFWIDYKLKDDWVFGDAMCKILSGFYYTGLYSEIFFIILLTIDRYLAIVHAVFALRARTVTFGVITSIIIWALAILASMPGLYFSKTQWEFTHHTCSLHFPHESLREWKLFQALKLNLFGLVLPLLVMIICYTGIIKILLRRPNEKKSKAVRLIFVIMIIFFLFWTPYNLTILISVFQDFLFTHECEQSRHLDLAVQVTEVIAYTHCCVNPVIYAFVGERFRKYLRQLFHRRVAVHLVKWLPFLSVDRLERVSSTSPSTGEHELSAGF
The experiment in a line: Human CCR1 binding assay ([125I] MIP-1α displacement). The settings on record: displacement of 33 pM [125I] MIP-1α, HEK-CCR1 membranes. As for the experimental part:
HEK293 cells, from ECACC, stably expressing recombinant human CCR1 (HEK-CCR1) were used to prepare cell membranes containing CCR1. The membranes were stored at −70° C. The concentration of membranes of each batch was adjusted to 10% specific binding of 33 pM [^125I] MIP-1α.
100 μL of HEK-CCR1 membranes diluted in assay buffer pH 7.4 ((137 mM NaCl (Merck, Cat No 1.06404), 5.7 mM Glucose (Sigma, Cat No G5400), 2.7 mM KCl (Sigma, Cat No P-9333), 0.36 mM NaH2PO4×H2O (Merck, Cat No 1.06346), 10 mM HEPES (Sigma, Cat No H3375), 0.1% (w/v) Gelatine (Sigma, Cat No G2625)) with the addition of 17500 units/L Bacitracin (Sigma, Cat No B1025) were added to each well of the 96 well filter plate (0.45 μm opaque Millipore cat no MHVB N4550). 12 μL of compound in assay buffer, containing 10% DMSO, was added to give final compound concentrations of 1×10^−5.5−I×10^−9.5 M. 12 μL cold human recombinant MIP-1α (270-LD-050, R&D Systems, Oxford, UK), 10 nM final concentration in assay buffer supplemented with 10% DMSO, was included in certain wells (without compound) as non-specific binding control (NSB). 12 μL assay buffer with 10% DMSO was added to certain wells (without compound) to detect maximal binding (B0).
12 μL [^125I] MIP-1α, diluted in assay buffer to a final concentration in the wells of 33 pM, was added to all wells. The plates with lid were then incubated for 1.5 h at room temperature. After incubation the wells were emptied by vacuum filtration (MultiScreen Resist Vacuum Manifold system, Millipore) and washed once with 200 μL assay buffer. After the wash, all wells received an addition of […] of scintillation fluid (OptiPhase “Supermix”, Wallac Oy, Turko, Finland). Bound [^125I] MIP-1α was measured using a Wallac Trilux 1450 MicroBeta counter. Window settings: Low 5-High 1020, 1-minute counting/well.
The following equation was used to calculate percent displacement.
Percent displacement=1−((cpm test−cpm NSB)/(cpm B0−cpm NSB)) where:
cpm test=average cpm in wells with membranes and compound and [^125I] MIP-1α; NSB=average cpm in the wells with membranes and MIP-1α and [^125I] MIP-1α (non-specific binding); B0=average cpm in wells with membranes and assay buffer and [^125I] MIP-1α (maximum binding).
The molar concentration of compound producing 50% displacement (IC50) was derived using the Excel-based program XLfit (version 2.0.9) to fit data to a 4-parameter logistics function.

Test [2] deals with T2, human ether-a-go-go-related-gene (hERG)-encoded potassium channel (Homo sapiens, UniProt Q12809).
T2 construct: expressed in transfected cells; host or cells: HEK 293 cell membranes
Kind of test: hERG-encoded potassium channel binding assay. The settings on record: HEK 293 cell membranes expressing the IKR channel, radioligand binding; read-out: hERG binding concentration. Here is the method: This assay, which is described in full detail in example 2, WO2005037052, determines the ability of a test compound to bind to the human ether-a-go-go-related-gene (hERG)-encoded potassium channel. The assay comprises the following steps: a) incubation of HEK 293 cell membranes expressing the IKR channel in the presence of radioligand 3,7-bis[2-(4-nitro[3,5-^3H]phenyl)ethyl]-3,7-diazabicyclo[3.3.1]nonane, in the presence or absence of a test compound; b) quantitation of specifically bound labelled compound in the presence or absence of a test compound; c) calculation of the inhibition of labelled compound binding by the test compound. Similar protocols to determine affinity for the human ether-a-go-go-related-gene (hERG)-encoded potassium channel have been described by Finlayson, K. et al. [Eur. J. Pharmacol. 2001, 412, 203 and Eur. J. Pharmacol. 2001, 430, 147].
Background: Block of hERG is tested as a sign of cardiac risk.

Where [3] appears, read: read-out: Result from assay: IC50.
[4] abbreviates: read-out: Result from assay: pIC50 (converted).

T2 sequence (Q12809 whole entry): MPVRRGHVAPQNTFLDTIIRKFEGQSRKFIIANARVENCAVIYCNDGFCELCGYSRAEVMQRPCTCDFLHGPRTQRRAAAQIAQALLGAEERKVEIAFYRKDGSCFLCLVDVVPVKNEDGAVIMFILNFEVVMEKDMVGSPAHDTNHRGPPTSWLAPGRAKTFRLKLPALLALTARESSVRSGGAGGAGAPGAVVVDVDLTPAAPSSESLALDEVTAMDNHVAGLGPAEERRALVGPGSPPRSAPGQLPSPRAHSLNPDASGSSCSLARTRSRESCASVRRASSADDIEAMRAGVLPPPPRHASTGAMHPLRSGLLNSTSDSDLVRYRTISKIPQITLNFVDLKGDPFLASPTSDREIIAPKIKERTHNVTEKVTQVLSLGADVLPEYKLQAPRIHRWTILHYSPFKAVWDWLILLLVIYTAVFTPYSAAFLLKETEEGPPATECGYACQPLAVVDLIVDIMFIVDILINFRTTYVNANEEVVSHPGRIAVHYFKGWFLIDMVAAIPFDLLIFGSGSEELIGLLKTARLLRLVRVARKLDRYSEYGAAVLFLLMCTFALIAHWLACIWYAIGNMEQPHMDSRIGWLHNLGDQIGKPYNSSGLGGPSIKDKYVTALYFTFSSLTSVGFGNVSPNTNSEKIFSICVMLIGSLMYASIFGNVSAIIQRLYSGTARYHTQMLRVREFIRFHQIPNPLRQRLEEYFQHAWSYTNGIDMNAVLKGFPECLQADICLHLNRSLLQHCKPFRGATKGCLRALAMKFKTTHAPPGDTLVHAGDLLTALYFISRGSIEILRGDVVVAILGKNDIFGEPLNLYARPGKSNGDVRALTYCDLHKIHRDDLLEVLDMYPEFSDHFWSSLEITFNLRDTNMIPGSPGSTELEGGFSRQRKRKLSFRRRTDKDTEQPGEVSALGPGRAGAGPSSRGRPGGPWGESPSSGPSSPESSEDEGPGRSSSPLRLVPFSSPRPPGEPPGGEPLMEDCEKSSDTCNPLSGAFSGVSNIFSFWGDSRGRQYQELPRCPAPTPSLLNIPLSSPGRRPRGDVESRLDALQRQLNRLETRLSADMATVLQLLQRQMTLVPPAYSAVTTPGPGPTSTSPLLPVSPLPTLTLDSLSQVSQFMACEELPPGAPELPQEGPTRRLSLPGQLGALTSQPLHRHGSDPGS

Turning to `CNC(=O)c1cc(Cl)c(OC(C)(C)C(=O)O)cc1OC[C@@H](O)CN1CCC2(CC1)Cc1cc(Cl)cc(C(C)(C)C)c1O2` [Example 22, 2-[5-{[(2S)-3-(7-tert-Butyl-5-chloro-1′H, 3H-spiro[1-benzofuran-2,4′-piperidin]-1′-yl)-2-hydroxypropyl]oxy}-2-chloro-4-(methylcarbamoyl)phenoxy]-2-methylpropanoic acid], in test [1] (setting [3]), the IC50 was determined as 71.7 nM.
For `CNC(=O)c1cc(Cl)c(OCC(=O)O)cc1OC[C@@H](O)CN1CCC2(CC1)Cc1cc(Cl)ccc1O2` [Example 4], the IC50 in test [1] (setting [3]) amounted to 20.2 nM.
Still for that read-out and setting: the same measure for `CN(C)C(=O)c1cc(Cl)c(OCC(=O)O)cc1OC[C@@H](O)CN1CCC2(CC1)Cc1cc(Cl)ccc1O2` [Example 18, {2-Chloro-5-{[(2S)-3-(5-chloro-1′H,3H-spirol[1-benzofuran-2,4′-piperidin]-1′-yl)-2-hydroxypropyl]oxy}-4-[(dimethylamino)carbonyl]phenoxy}acetic acid]: 11.4 nM.
On the same count and under the same terms, under `CNC(=O)c1cc(Cl)c(OC(C)(C)C(=O)O)cc1OC[C@@H](O)CN1CCC2(CC1)Cc1cc(Cl)ccc1O2` [Example 5, 2-[2-Chloro-5-{[(2S)-3-(5-chloro-1′H,3H-spiro[l-benzofuran-2,4′-piperidin]-1′-yl)-2-hydroxypropyl]oxy}-4-[(methylamino)carbonyl]-phenoxy}-2-methylpropanoic acid TFA] stands 1.06 nM; under `CN(C)C(=O)c1cc(Cl)c(OC(C)(C)C(=O)O)cc1OC[C@@H](O)CN1CCC2(CC1)Cc1cc(Cl)ccc1O2` [Example 19, 2-{2-Chloro-5-{[(2S)-3-(5-chloro-1′H, 3H-spiro[l-benzofuran-2,4′-piperidin]-1′-yl)-2-hydroxypropyl]oxy}-4-[(dimethylamino)carbonyl]-phenoxy}-2-methylpropanoic acid], 1.6 nM; under `CNC(=O)c1cc(Cl)c(OC(C)(C)C(=O)O)cc1OC[C@H](O)CN1CCC2(CC1)Cc1cc(Cl)ccc1O2` [Example 6, 2-{2-Chloro-5-{[(2R)-3-(5-chloro-1′H,3H-spiro[1-benzofuran-2,4′-piperidin]-1′-yl)-2-hydroxypropyl]oxy}-4-[(methylamino)carbonyl]phenoxy}-2-methylpropanoic acid], 11 nM.
Consider `CC(=O)Nc1cc(Cl)c(OCC(=O)O)cc1OC[C@@H](O)CN1CCC2(CC1)Cc1cc(Cl)ccc1O2` [Example 1, (4-(acetylamino)-2-chloro-5-{[(2S)-3-(5-chloro-1′H,3H-spiro[1-benzofuran-2,4′-piperidin]-1′-yl)-2-hydroxypropyl]oxy}phenoxy)acetic acid], for which the values for the IC50 in test [1] (setting [4]) and in test [2] were 0.562 nM and over 30000 nM, respectively.
As for `CNC(=O)c1cc(Cl)c(OC(C)(C)C(=O)O)cc1OCC(O)CN1CCC2(CC1)Cc1cc(Cl)ccc1O2` (racemic) [Example 21, 2-{2-Chloro-5-{3-(5-chloro-1′H 3H-spiro[1-benzofuran-2,4′-piperidin]-1′-yl)-2-hydroxypropyl]oxy}-4-dimethylamino)carbonyl]-phenoxy}-2-methyl-propanoic acid trifluoracetate], the IC50 in test [1] (setting [3]) was 2.42 nM.
The same measure, in the same setting: under `O=C(O)COc1cc(OC[C@@H](O)CN2CCC3(CC2)Cc2cc(Cl)ccc2O3)c(C(=O)N2CC[C@H](O)C2)cc1Cl` [Example 20, (2-Chloro-5-{[(2S)-3-(5-chloro-1′H,3H-spiro[1-benzofuran-2,4′-piperidin]-1′-yl)-2-hydroxypropyl]oxy}-4-{[(3S)-3-hydroxypyrrolidin-1-yl]carbonyl}phenoxy)acetic acid] stands 2.02 nM; under `CC(=O)Nc1ccc(OCC(=O)O)cc1OC[C@@H](O)CN1CCC2(CC1)Cc1cc(Cl)ccc1O2` [Example 2, (4-(acetylamino)-3-{[(2S)-3-(5-chloro-1′H,3H-spiro[1-benzofuran-2,4′-piperidin]-1′-yl)-2-hydroxypropyl]oxy}phenoxy)acetic acid], 10 nM.
For the compound `CC(=O)Nc1cc(Cl)c(OCC(=O)O)cc1OC[C@@H](O)CN1CCC2(CC1)Cc1cc(F)ccc1O2` [Example 3, (4-(acetylamino)-2-chloro-5-{[(2S)-3-(5-fluoro-1′H,3H-spiro[1-benzofuran-2,4′-piperidin]-1′-yl)-2-hydroxypropyl]oxy}phenoxy)acetic acid, hydrochloride], the IC50 in test [1] (setting [4]) is 2.24 nM.
